Assay results as given in ChEMBL document CHEMBL5579834 (Eur J Med Chem, 2024).

Experiments:
[1] = test system: Ebolavirus; experiment: Antiviral activity against HIV-based lentiviral pseudotyped Ebolavirus harboring mucin domain deleted GP infected in HEK293T cells assessed as inhibition of viral entry preincubated with virus for 1 hr followed by cell infection and measured after 48 hrs by luminescence assay; type: functional, organism-based; settings: Orthoebolavirus, HEK-293T
[2] = Selectivity index, ratio of CC50 for HEK293T cells to IC50 for antiviral activity against HIV-based lentiviral pseudotyped Marburgvirus harboring mucin domain deleted GP infected in HEK293T cells assessed as inhibition of viral entry; type: toxicity, cell-based; settings: human, read-out: Ratio CC50/IC50
[3] = Selectivity index, ratio of CC50 for HEK293T cells to IC50 for antiviral activity against HIV-based lentiviral pseudotyped Ebolavirus harboring mucin domain deleted GP infected in HEK293T cells assessed as inhibition of viral entry; type: toxicity, cell-based; settings: human, read-out: Ratio CC50/IC50
[4] = test system: Marburgvirus; experiment: Antiviral activity against HIV-based lentiviral pseudotyped Marburgvirus harboring mucin domain deleted GP infected in HEK293T cells assessed as inhibition of viral entry preincubated with virus for 1 hr followed by cell infection and measured after 48 hrs by luminescence assay; type: functional, organism-based; settings: Orthomarburgvirus, HEK-293T
[5] = test system: Ebolavirus; experiment: Antiviral activity against pseudotyped Ebolavirus harboring GP; type: functional, organism-based; settings: Orthoebolavirus

Structure (SMILES) | IC50 [1] | selectivity ratio [2] | selectivity ratio [3] | IC50 [4] | IC50 [5]
C[C@@H]1[C@H]2C[C@@H](C[C@H]1OC(=O)CN1CCN(c3ccccc3)CC1)C2(C)C | 9 µM | 2 | 6 | 25 µM | 
CC1(C)[C@H]2CC[C@](C)(C2)[C@H]1OC(=O)CCCN1CCN(c2ccccc2)CC1 | 0.54 µM | 10 | 22 | 6 µM | 
CC1CCN(CCCC(=O)O[C@H]2C(C)(C)[C@H]3CC[C@]2(C)C3)CC1 | 2.8 µM |  |  | 26.4 µM | 
C[C@@H]1[C@H]2C[C@@H](C[C@H]1OC(=O)CCCN1CCOCC1)C2(C)C | 21 µM | 2 | 5 | 39 µM | 
C[C@@H]1[C@H]2C[C@@H](C[C@H]1OC(=O)CN1CCN(C)CC1)C2(C)C | 4.8 µM |  |  | 47.6 µM | 
CC1(C)[C@@H]2CC[C@@]1(CS(=O)(=O)N1CCOCC1)C(=O)C2 |  |  |  |  | 0.9 µM
CCN1CCN(CCCC(=O)O[C@H]2C(C)(C)[C@H]3CC[C@]2(C)C3)CC1 | 2.4 µM |  |  | 11.3 µM | 
CC1(C)[C@H]2CC[C@](C)(C2)[C@H]1OC(=O)CCCN1CCOCC1 | 6.5 µM | 3 | 40 | 68 µM | 
C[C@@H]1[C@H]2C[C@@H](C[C@H]1OC(=O)CN1CCOCC1)C2(C)C | 106 µM |  | 1 |  | 
CC1(C)[C@H]2CC[C@](C)(C2)[C@H]1OC(=O)CN1CCCCC1 | 17.1 µM | 1 | 13 | 164 µM | 
C[C@@H]1[C@H]2C[C@@H](C[C@H]1OC(=O)CCN1CCCCC1)C2(C)C | 14.3 µM | 13 | 23 | 24 µM | 
C[C@@H]1[C@H]2C[C@@H](C[C@H]1OC(=O)CCN1CCOCC1)C2(C)C | 57 µM | 1 | 4 | 156 µM | 
CC1(C)[C@H]2CC[C@](C)(C2)[C@H]1OC(=O)CN1CCN(c2ccccc2)CC1 | 5.8 µM | 1 | 17 | 56 µM | 
C[C@@H]1[C@H]2C[C@@H](C[C@H]1OC(=O)CCN1CCN(C)CC1)C2(C)C | 4.9 µM |  |  | 13.9 µM | 
CCN1CCN(CC(=O)O[C@H]2C(C)(C)[C@H]3CC[C@]2(C)C3)CC1 | 9.1 µM |  |  | 30.1 µM | 
CC1(C)[C@H]2CC[C@](C)(C2)[C@H]1OC(=O)CCCN1CCCCC1 | 1.9 µM |  |  | 13 µM | 
CN1CCN(CCC(=O)O[C@H]2C(C)(C)[C@H]3CC[C@]2(C)C3)CC1 | 10.1 µM | 16 | 45 | 29 µM | 
CCN1CCN(CCC(=O)O[C@H]2C(C)(C)[C@H]3CC[C@]2(C)C3)CC1 | 8.1 µM | 14 | 44 | 25 µM | 

Structure (SMILES) | IC50 [1] | selectivity ratio [2] | selectivity ratio [3] | IC50 [4] | IC50 [5]
CN1CCN(S(=O)(=O)C[C@]23CC[C@H](CC2=O)C3(C)C)CC1 |  |  |  |  | 540 µM
CN(C)CCOc1ccc(/C(=C(/CCCl)c2ccccc2)c2ccccc2)cc1 [TOREMIFENE] | 0.2 µM |  |  | 0.7 µM | 
CN1CCN(CC(=O)O[C@H]2C(C)(C)[C@H]3CC[C@]2(C)C3)CC1 | 20.4 µM |  |  | 27.5 µM | 
CC1CCN(CCC(=O)O[C@H]2C(C)(C)[C@H]3CC[C@]2(C)C3)CC1 | 3.9 µM | 8 | 48 | 22 µM | 
CC1CCN(CC(=O)O[C@H]2C(C)(C)[C@H]3CC[C@]2(C)C3)CC1 | 20.5 µM |  |  | 20.4 µM | 
CC1(C)[C@@H]2CC[C@@]1(CS(=O)(=O)N1CCCCC1)C(=O)C2 |  |  |  |  | 60 µM
CCN1CCN(S(=O)(=O)C[C@]23CC[C@H](CC2=O)C3(C)C)CC1 |  |  |  |  | 91 µM
C[C@@H]1[C@H]2C[C@@H](C[C@H]1OC(=O)CCCN1CCCCC1)C2(C)C | 4 µM | 13 | 30 | 9 µM | 
CC1(C)[C@H]2CC[C@](C)(C2)[C@H]1OC(=O)CCN1CCOCC1 | 57.9 µM |  |  | 64.4 µM | 
C[C@@H]1[C@H]2C[C@@H](C[C@H]1OC(=O)CCN1CCN(c3ccccc3)CC1)C2(C)C | 54 µM | 4 | 2 | 27 µM | 
CN1CCN(CCCC(=O)O[C@H]2C(C)(C)[C@H]3CC[C@]2(C)C3)CC1 | 3.1 µM |  |  | 20.7 µM | 
CC1(C)[C@H]2CC[C@](C)(C2)[C@H]1OC(=O)CN1CCOCC1 | 13 µM | 1 | 22 | 213 µM | 
C[C@@H]1[C@H]2C[C@@H](C[C@H]1OC(=O)CCCN1CCN(C)CC1)C2(C)C | 2.8 µM | 6 | 58 | 24 µM | 
C[C@@H]1[C@H]2C[C@@H](C[C@H]1OC(=O)CCCN1CCN(c3ccccc3)CC1)C2(C)C | 7.8 µM | 3 | 8 | 18 µM | 
CC1(C)[C@H]2CC[C@](C)(C2)[C@H]1OC(=O)CCN1CCCCC1 | 17 µM | 11 | 20 | 31 µM | 
CC1(C)[C@H]2CC[C@](C)(C2)[C@H]1OC(=O)CCN1CCN(c2ccccc2)CC1 | 10 µM | 3 | 2 | 7.3 µM | 
C[C@@H]1[C@H]2C[C@@H](C[C@H]1OC(=O)CN1CCCCC1)C2(C)C | 42 µM | 3 | 7 | 107 µM | 
